Source: patent US20260375146A1, “COMBINATION OF COMPOUNDS FOR DEVELOPING IN VITRO MODELS OF THE BLOOD-BRAIN BARRIER” (HUN-REN SZEGEDI BIOLÓGIAI KUTATÓKÖZPONT, priority 2023, published 2026)
Read-outs that look alike come from different tables or passages of the source.

Tests used:
Wnt/β-catenin signaling [1] = settings: role: inhibitor; cited from earlier work
Wnt/β-catenin signaling [2] = experiment: Pharmacological inhibition of Wnt/β-catenin signaling, barrier integrity by impedance; type: cell-based, human; settings: for interference with basal barrier integrity: no combination treatment, titrated inhibitor; for reduction of the effect of cAMP+Ro+LiCl+A83-01 on barrier integrity (impedance): role: inhibitor, ICG-001 5 μM or XAV 939 1 μM, co-treatment 48 h
Procedure: (§1) Real-time, label-free measurement of barrier integrity was performed in 96-well plates with integrated gold electrodes (E-plate 96: Agilent, cat #300600910) using an xCELLigence RTCA SP device (Agilent). Plates were coated with 0.2% gelatin (Sigma-Aldrich, cat #G2500) and the cell-free background was measured in culture medium for each well. Then, ECs were seeded in the plates at a density of 6×10^3 cells/well and grown until fully confluent, while receiving 50% PC-conditioned medium to acquire brain-like properties. […] For combinatorial treatments, the following concentrations were used: cAMP 250 µM, Ro […], Wnt-3a 300 ng/mL, Wnt-7a 300 ng/mL, LiCl 3 mM, RepSox 10 μM and A83-01 3 μM. For all further experiments on human ECs, combination of cAMP+Ro+LiCl+A83-01 treatment consisted of 250 μM cAMP+17.5 μM Ro+3 mM LiCl+3 μM A83-01. The readout of impedance measurements is cell index, a dimensionless parameter which correlates with the strength of cell-cell contacts and cell adhesion. Cell index was defined as Zn-Z0, where Zn is the impedance at time point n and Zo is the impedance of the cell-free background in each well. Cell index values were normalized to the last time point before treatment.
Wnt/β-catenin signaling was blocked at two different points using inhibitors ICG-001 (MedChemExpress, cat #HY-14428) and XAV 939 (MedChemExpress, cat #HY-15147). For the measurement of barrier integrity by impedance. ECs were cultured as described above. Confluent monolayers were treated with ICG-001 […] for 48 h at 37 °C, and impedance was measured at 10 kHz every 5 min using the xCELLigence RTCA SP device (Agilent) as described above. […] For the measurement of TEER and tracer permeability, EC-PC co-cultures were assembled and maintained as described above. On day 4, the luminal (blood) side of the model was incubated with the combination of cAMP+Ro+LiC+A83-01 or control medium supplemented with either 5 μM ICG-001 or 1 μM XAV 939 for 48 h at 37 °C. TEER and tracer permeability were then measured and calculated as described above.

[3] = test system: EC-PC co-culture BBB model; experiment: Penetration of small molecule drugs across the BBB co-culture model; settings: 1 μM drug; cAMP+Ro+LiCl+A83-01 vs control
Procedure: Assembly, maintenance and treatment of co-cultures were performed as described above. […] In B-A direction, samples from both compartments were collected at 60 min. In A-B direction, inserts were transferred to a new well with fresh buffer at 30 min, then at the end of the assay samples were collected from the donor (0-60 min) and acceptor compartments (0-30 min, 30-60 min). […] Drug concentrations were determined by standard calibration curves.
where CA is the concentration measured in the acceptor compartment, VA is the volume of the acceptor compartment (1.5 mL) and CD is the treatment concentration in the donor compartment at a given timepoint. […] Papp was then calculated as: […]
where A is the surface area of the insert available for permeability (1.12 cm^2). Efflux ratio was calculated by dividing Papp values in B-A direction by Papp values in A-B direction.
where nA.30, nA.60 and nD.60 are the amounts of substance (pmol) in the accentor compartment at 30 and 60 min as well as the donor compartment at 60 min, respectively, and nT is the amount of substance (pmol) present at the treatment solution at 0 min. In vitro Kp,uu,brain was then calculated as: […]
where CT is the concentration of a drug in the treatment solution at 0 min, CD is the concentration in the donor compartment at 60 min and R is recovery. Calculation of Pearson r^2 and Spearman r coefficients using data referenced in the legend FIG. 5d was performed in GraphPad Prism software (version 5.0).

central nervous system = settings: route of penetration across the BBB; cited from earlier work
stem cell-derived ECs = settings: cited from earlier work
[4] = test system: human endothelial cell and brain pericyte co-culture BBB model; experiment: Early experiment: cAMP alone or with PDE4 inhibitor, normalized cell index; type: cell-based; settings: PDE4 inhibitor together with cAMP; in particular within first 24 hours; data not shown
EC monolayers = settings: alone, especially with astrocyte-conditioned medium; cited from earlier work
Wnt/β-catenin signaling [5] = settings: in vitro; cited from earlier work
[6] = test system: human stem cell-derived brain-like ECs; experiment: Albumin internalization in ECs; type: cell-based; settings: MβCD 1 mM, 1 h
Procedure: ECs were cultured in 50% PC-conditioned medium on 35 mm glass bottom Petri dishes (Greiner Bio-One, cat #627860) coated with collagen IV (Sigma-Aldrich, cat #C5533, 100 ng/mL) and fibronectin (Sigma-Aldrich, cat #F1141, 25 μg/mL) at a seeding density of 5×10^4 cells/cm^2. […] After that, culture medium was removed and cells were incubated with Texas Red-conjugated BSA (TR-albumin; Invitrogen, cat #A23017, 5 μg/mL) dissolved in control medium for 2 h at 37 °C. For the final 20 minutes of incubation, Hoechst 33342 (Thermo Fisher, cat #H1399,2 μg/mL) was added to cells to counterstain nuclei. Cultures were washed twice in Ringer-HEPES supplemented with 1% FBS and live-cell imaging was performed immediately in the same buffer using a Leica TCS SP5 AOBS confocal laser scanning microscope equipped with a HCX PL APO 63× oil (NA=1.4) objective with the same parameters as described above. After live-cell imaging, cells were fixed with 3% paraformaldehyde for 15 min at room temperature and immunostained for caveolin-1 exactly as described above. […] Finally, ECs were lysed with 1% Triton X 100 in Milli-Q water and the fluorescent signal of internalized TR-albumin was quantified with a Fluorolog 3 spectrofluorometer (Horiba Jobin Yvon) at 592 nm excitation and 612 nm emission wavelengths. Concentrations of internalized TR-albumin were calculated using a standard calibration curve. […]

[7] = test system: human stem cell-derived ECs; experiment: Impedance-based measurement of barrier integrity, human ECs; type: cell-based
Procedure: as §1

## Oc1nc(-c2ccc(C(F)(F)F)cc2)nc2c1CSCC2 [XAV 939]
Wnt/β-catenin signaling [1]
  point of inhibition of Wnt signaling: blocks the pathway upstream of nuclear translocation
Wnt/β-catenin signaling [2]
  interference with basal barrier integrity: do not interfere with basal barrier integrity
  reduction of the effect of cAMP+Ro+LiCl+A83-01 on barrier integrity (impedance): more potently reduced the effect of the combination of cAMP+Ro+LiCl+A83-01, almost to the level of cAMP+Ro treatment

## CN(C)C(=O)C(CCN1CCC(O)(c2ccc(Cl)cc2)CC1)(c1ccccc1)c1ccccc1 [Loperamide]
[3]
  efflux ratio, change on combination treatment: elevated
  permeability (Papp), blood-to-brain (A-B), change on combination treatment: lower permeability
Central nervous system
  BBB transport: Passive hydrophilic, efflux

## Cc1cccc(-c2[nH]ncc2-c2ccc3ncccc3n2)n1 [RepSox]
Stem cell-derived ECs; stem cell-derived ECs, via claudin-5
  junctional tightness: elevate junctional tightness

## O=C1[C@H](Cc2ccc(O)cc2)N2C(=O)CCN(C(=O)NCc3ccccc3)[C@H]2CN1Cc1cccc2ccccc12 [ICG-001]
Wnt/β-catenin signaling [1]
  point of inhibition of Wnt signaling: specifically inhibits the β-catenin-CREB-binding protein (CBP) interaction in the nucleus
Wnt/β-catenin signaling [2]
  interference with basal barrier integrity: do not interfere with basal barrier integrity
  reduction of the effect of cAMP+Ro+LiCl+A83-01 on barrier integrity (impedance): moderately

## Nc1c2c(nc3ccccc13)CCCC2 [Tacrine]
[3]
  permeability (Papp), blood-to-brain (A-B), change on combination treatment: increased the permeability
Central nervous system
  BBB transport: Influx

## COc1ccc2c(c1)c(CC(=O)O)c(C)n2C(=O)c1ccc(Cl)cc1 [Indomethacin]
Central nervous system
  BBB transport: Passive lipophilic

## CCCCOc1cc(CC2CNC(=O)N2)ccc1OC (stereo not shown) [Ro 20-1724, 4-(3-Butoxy-4-methoxybenzyl)imidazolidin-2-one]
[4]
  barrier integrity as normalized cell index, further increase over cAMP alone: further increases barrier integrity
EC monolayers
  resistance across EC monolayers: increase resistance across EC monolayers

## Methotrexate
[3]
  efflux ratio, change on combination treatment: elevated
Central nervous system
  BBB transport: Efflux

## Cc1c[nH]c(-c2cnc(NCCNc3ccc(C#N)cn3)nc2-c2ccc(Cl)cc2Cl)n1 [CHIR99021]
Wnt/β-catenin signaling [5]
  induction of barrier properties: induce a subset of barrier properties

## CC[C@]1(O)C[C@@H]2CN(CCc3c([nH]c4ccccc34)[C@@](C(=O)OC)(c3cc4c(cc3OC)N(C)[C@H]3[C@@](O)(C(=O)OC)[C@H](OC(C)=O)[C@]5(CC)C=CCN6CC[C@]43[C@@H]65)C2)C1 [Vinblastine]
[3]
  efflux ratio, change on combination treatment: trend
  permeability (Papp), blood-to-brain (A-B), change on combination treatment: lower permeability
Central nervous system
  BBB transport: Efflux

## O=C(O)c1ccccc1O [Salicylic acid]
[3]
  permeability (Papp), blood-to-brain (A-B), change on combination treatment: lower permeability
Central nervous system
  BBB transport: Efflux, influx

## methyl-β-cyclodextrin [methyl-p-cyclodextrin]
[6]
  inhibition of albumin internalization (lipid raft/caveolin-mediated endocytosis): sensitive

## CC(C)NCC(O)COc1cccc2ccccc12 (stereo not shown) [Propranolol]
[3]
  permeability (Papp), blood-to-brain (A-B), change on combination treatment: increased the permeability
Central nervous system
  BBB transport: Passive lipophilic

## O=C1Nc2cc(Br)ccc2C1=C1Nc2ccccc2C1=NO [6-BIO, 6-bromoindirubin-3-oxim]
Wnt/β-catenin signaling [5]
  induction of barrier properties: induce a subset of barrier properties

## [Cl-].[Li+] [LiCl, lithium chloride]
Wnt/β-catenin signaling [5]
  induction of barrier properties: induce a subset of barrier properties
[7]; added to cAMP+Ro
  enhancement of the effect of cAMP+Ro on barrier integrity (impedance): did not enhance

## Cc1cccc(-c2nn(C(=S)Nc3ccccc3)cc2-c2ccnc3ccccc23)n1 [A83-01, 3-(6-Methyl-2-pyridinyl)-N-phenyl-4-(4-quinolinyl)-1H-pyrazole-1-carbothioamide]
Stem cell-derived ECs
  junctional tightness: elevate junctional tightness
[7]
  enhancement of the effect of cAMP+Ro on barrier integrity (impedance): did not enhance

## C=C[C@@]1(C)CC(=O)[C@]2(O)[C@@]3(C)[C@@H](O)CCC(C)(C)[C@@H]3[C@H](O)[C@H](OC(C)=O)[C@@]2(C)O1 [forskolin]
EC monolayers
  resistance across EC monolayers: increase resistance across EC monolayers

## Nc1nnc(-c2cccc(Cl)c2Cl)c(N)n1 [Lamotrigine]
Central nervous system
  BBB transport: Passive lipophilic

B1: Wnt-3a: recombinant human Wnt-3a protein (protein, UniProt P56704 19-352, looked up)
Protein Wnt-3a: SYPIWWSLAVGPQYSSLGSQPILCASIPGLVPKQLRFCRNYVEIMPSVAEGIKIGIQECQHQFRGRRWNCTTVHDSLAIFGPVLDKATRESAFVHAIASAGVAFAVTRSCAEGTAAICGCSSRHQGSPGKGWKWGGCSEDIEFGGMVSREFADARENRPDARSAMNRHNNEAGRQAIASHMHLKCKCHGLSGSCEVKTCWWSQPDFRAIGDFLKDKYDSASEMVVEKHRESRGWVETLRPRYTYFKVPTERDLVYYEASPNFCEPNPETGSFGTRDRTCNVSSHGIDGCDLLCCGRGHNARAERRREKCRCVFHWCCYVSCQECTRVYDVHTCK
Wnt/β-catenin signaling [5]
  induction of barrier properties: induce a subset of barrier properties
